According to patent US20080070866A1, “Chemical compounds” (Praecis Pharmaceuticals Incorporated, priority 2006, published 2008):

Biological target: T1, S1P-1 receptor (Homo sapiens, UniProt P21453)
T1 construct: expressed in transfected cells; host or cells: HEK 293 T cells (membrane preparation)
Assay: [33P]sphingosine 1-phosphate binding assay on membranes of transfected HEK 293 T cells
Conditions: [33P]S1P binding, receptor taken from context of b294
Description: In certain embodiments, the compounds of the invention selective for the S1P-1 receptor as compared to one or more of the other S1P receptors. For example, one set of compounds includes compounds which are selective for the S1P-1 receptor relative to the S1P-3 receptor. […] The EC50 of a compound is determined using the ^35S-GTPγS binding assay, as described in WO 03/061567, the entire contents of which are incorporated herein by reference. […] The IC50 of a compound is determined using the [^33P]sphingosine 1-phosphate binding assay, as described in Davis, M. D. et al., Sphingosine 1-Phosphate Analogs as Receptor Antagonists. J. Biol. Chem. (2005) 280:9833-9841, the entire contents of which are incorporated herein by this reference.
The terms “agonist” or “S1P-1 receptor agonist” as used herein include the compounds described herein which bind to and/or agonize the S1P-1 receptor. […] The compounds' IC50 for the S1P1 receptor can be measured using the binding assays described in Example 13 or those described in WO 03/061567.
The ability of several of the compounds described herein to bind to the S1P-1 or S1P-3 receptor was also tested as follows.
For the membrane preparation, plasmid DNA was transfected into HEK 293 T cells using the FuGENE 6 transfection protocol (publicly available from Roche). […] Protein concentration was determined spectroscopically by Bradford protein assay. […]

T1 sequence (P21453 whole entry): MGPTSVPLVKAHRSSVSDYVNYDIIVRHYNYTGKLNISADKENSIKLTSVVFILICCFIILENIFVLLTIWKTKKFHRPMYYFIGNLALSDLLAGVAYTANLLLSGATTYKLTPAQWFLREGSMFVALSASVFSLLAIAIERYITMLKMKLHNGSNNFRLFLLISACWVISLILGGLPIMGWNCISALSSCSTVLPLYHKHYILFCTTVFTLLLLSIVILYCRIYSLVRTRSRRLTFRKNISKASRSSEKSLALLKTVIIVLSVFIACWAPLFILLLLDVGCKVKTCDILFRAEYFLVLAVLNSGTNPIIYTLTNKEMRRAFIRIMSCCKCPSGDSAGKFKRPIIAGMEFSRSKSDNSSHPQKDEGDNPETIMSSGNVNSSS

CCCCCOCCOc1ccc(-c2nnc([C@@](C)(N)CO)s2)cc1C(F)(F)F
IC50: 2.17 nM
